# In patent publication US20040057913A1, “Antioxidant and skin preparations for external use” (priority 2000, published 2004):
# System: ICR male mouse
# Test: Mouse ear swelling suppressing activity (TPA-induced edema)
# Format: in vivo
# Conditions: applied to the ear 30 minutes before the TPA application; measured 4 hours after TPA; Mozuku extract 0.25 or 0.5 mg/ear, indomethacin 0.2 mg/ear (FIG. 4)
# Method: Mouse ear swelling suppressing activity of the Mozuku extract was examined as follows. The thickness of the ear of an ICR male mouse (age: 5 weeks) was measured using a thickness gauge (Digimatic Indicator 543, manufactured by Mitsutoyo Co., Ltd.). The Mozuku extract was applied to the ear in the amount of 0.25 mg/ear or 0.5 mg/ear. As a comparative test, an indomethacin solution, prepared by dissolving indomethacin at a concentration of 1.0% in 70% acetone, was applied to the mouse ear in the amount of 0.2 mg/ear. 30 minutes after the application, 10 μl of a […] solution of 12-O-tetradecanoylphorbol-13-acetate (TPA) in 70% acetone was applied to the in and out sides of the mouse ear to induce a skin reaction. The thickness of the ear skin was measured after 4 hours at which the value of the swelling became the maximum. The ratio of the measured thickness to the thickness of the ear skin before the edema induction was calculated as the ratio of edema. The thickness of both the right and left ear skins was measured and the values were averaged to determine the ear skin thickness of the mouse.
smiles,measurement,value
COc1ccc2c(c1)c(CC(=O)O)c(C)n2C(=O)c1ccc(Cl)cc1 [indomethacin],"edema suppressing effect (ratio of edema, ear skin thickness)",remarkable edema suppressing effect
